Experimental data: patent US20160368943A1, “SUBSTITUTED PURINE COMPOUNDS” (EPIZYME, INC., priority 2013, published 2016)
Values joined by “and” are separate entries in the source; they are usually repeats but may differ in a detail not shown here. Identical values can stand only once.

Key:
[1] = Liver microsome stability, rat; format: in vitro ADME
Procedure: (§1) The final incubation volume was 50 μL. Control incubations were included for each species where 0.1 M phosphate buffer pH 7.4 was added instead of NADPH (minus NADPH). Two control compounds were included for each species. […] The control (minus NADPH) was incubated for 45 minutes only. The reactions were stopped by transferring 25 μL of incubate to 50 μL methanol at the appropriate time points. The incubation plates were centrifuged at 2,500 rpm for 20 minutes at 4° C. to aid protein precipitation. Experimental half-lives were transformed to the corresponding intrinsic clearance values and subsequently scaled to predicted in vivo clearance values, using the well-stirred model as previously described (Houston, Biochemical Pharmacology 47(9): 1469-1479, 1994; Obach, Drug Metabolism and Disposition 27(11): 1350-1359, 1999), with appropriate species-specific scaling factors (Barter et al., Current Drug Metabolism 8(1): 33-45, 2007).

[2] = Liver microsome stability, dog; format: in vitro ADME
Procedure: as §1

[3] = Plasma protein binding by equilibrium dialysis, mouse; format: in vitro ADME, CD-1 mouse; details: male, CD-1, pH 7.4, read-out: Plasma free fraction
Procedure: (§2) Plasma protein binding was assessed by equilibrium dialysis, utilizing the HT-dialysis cell format with a cellulose semi permeable membrane (molecular weight cut off of 5000 Da). Plasma was warmed to 37° C. and adjusted to pH 7.4 before use. Male Sprague-Dawley rat, male Beagle dog, male CD-1 mouse and mixed sex human plasma was used for the studies. A 5 μM test compound solution was prepared in isotonic phosphate buffer and rat, dog, mouse and human plasma (final DMSO concentration of 0.5%). The plasma-containing solution was introduced to one side of the membrane, and the plasma-free on the other. Incubations were performed for 2-16 hours in duplicate in order to allow the compound to reach equilibrium. Haloperidol was included as the control compound for each species. At the end of the equilibration time the cells were emptied. Following protein precipitation, the samples were centrifuged and analyzed by LC-MS/MS. The samples from the protein containing compartment were quantified using calibration standards prepared in plasma and the protein free compartments were quantified using calibration standards prepared in dialysis buffer.

[4] = Plasma protein binding by equilibrium dialysis, dog; format: in vitro ADME; details: male, beagle, pH 7.4, read-out: Plasma free fraction
Procedure: as §2

[5] = Plasma protein binding by equilibrium dialysis, human; format: in vitro ADME; details: both sexes, pH 7.4, read-out: Plasma free fraction
Procedure: as §2

Plasma stability, mouse = format: in vitro ADME, CD-1 mouse; details: CD-1, pooled plasma, 37° C., read-out: Half-life in ex vivo blood plasma
Description: (§3) Samples were quenched in methanol and analyzed by LC-MS/MS analysis.

Plasma stability, dog = format: in vitro ADME; details: Beagle, pooled plasma, 37° C., read-out: Half-life in ex vivo blood plasma
Description: as §3

Plasma stability, human = format: in vitro ADME; details: pooled plasma, 37° C., read-out: Half-life in ex vivo blood plasma
Description: as §3

[6] = MDCK cell permeability, native cells; format: in vitro ADME; details: dog, Basolateral-to-apical
Procedure: Samples were taken from the donor and receiver chambers at 120 minutes. Each determination was performed in duplicate. Co-dosed lucifer yellow flux was also measured for each monolayer to ensure cell monolayers remained intact during the incubation. All samples were assayed by LC-MS/MS.

[7] = Prediction of human pharmacokinetics by interspecies scaling
Description: PK endpoints of CL and VDss in mouse, rat and dog were used to scale to the corresponding parameters in human using a variety of allometric and interspecies scaling approaches as previously reported (Boxenbaum, Journal of Pharmacokinetics and Biopharmaceutics 10(2): 201-227, 1982; Jones et al., Journal of Pharmaceutical Sciences 100(10): 4074-4089, 2011; Lombardo et al., J Clin Pharmacol 53(2): 178-191, 2013a; Lombardo et al., J Clin Pharmacol 53(2): 167-177, 2013b; Mahmood & Balian, Xenobiotica 26(9): 887-895, 1996; Ring et al., Journal of Pharmaceutical Sciences 100(10): 4090-4110, 2011; Tang & Mayersohn, Journal of Pharmaceutical Sciences 95(8): 1783-1799, 2006; Tang & Mayersohn, Drug Metabolism and Disposition 33(9): 1297-1303, 2005; Vuppugalla et al., Journal of Pharmaceutical Sciences 100(10): 4111-4126, 2011). The likely predictive accuracy of each method was assessed based on visual inspection of the data fit, as well as values such as the R^2 and the allometric exponent, where appropriate.

[8] = Metabolite profiling in liver microsomes with NADPH and UDPGA, rat; format: in vitro ADME; details: Compound A 10 μM, 20 min
Procedure: Compound A was incubated with liver microsomes of various species (mouse, rat, dog or human). […] For all liver microsomal incubations, samples were taken at 0 and 20 minutes. All samples were quenched by using acetonitrile/methanol solution and analyzed using an LC-MS/MS Q-Trap system (AB Sciex, Framingham, Mass.).
The corresponding product ion tandem mass spectra of Compound A and its metabolites were obtained by using enhanced product ion (EPI) scans during positive ion electrospray. The possible chemical structures of the metabolites were deduced based on their MS1 and MS2 spectra.

[9] = Liver microsomes supplemented with UDPGA and alamethacin (glucuronidation); format: in vitro ADME
[10] = liver microsomes, pH 7.4, NADPH, 3 μM

CC(C)N(C[C@H]1O[C@@H](n2cnc3c(N)ncnc32)[C@H](O)[C@@H]1O)[C@H]1C[C@@H](CCc2nc3cc(C(C)(C)C)ccc3[nH]2)C1 [Compound A, (2R,3R,4S,5R)-2-(6-amino-9H-purin-9-yl)-5-((((1r,3S)-3-(2-(5-(tert-butyl)-1H-benzo[d]imidazol-2-yl)ethyl)cyclobutyl)(isopropyl)amino)methyl)tetrahydrofuran-3,4-diol]
microsomal CLint at 3 μM [1, 10]: 72 µL/min/mg | Scaled Hepatic CL from liver microsomes ([1]; well-stirred model): 45 mL/min/kg | microsomal CLint at 3 μM [2, 10]: 39 µL/min/mg | Scaled Hepatic CL from liver microsomes ([2]; well-stirred model): 20 mL/min/kg | fraction unbound at 5 μM [3]: 0.138 | fraction unbound at 5 μM [4]: 0.234 | fraction unbound at 5 μM [5]: 0.125 | half-life at 1 μM (Plasma stability, mouse): > 2 h | half-life at 1 μM (Plasma stability, dog): > 2 h | half-life at 1 μM (Plasma stability, human): > 2 h | Papp B→A at 120 min, 10 uM [6]: 0.3 ×10⁻⁶ cm/s | Predicted human VDss ([7]; Consensus prediction): 2.8 L/kg and 2.76 L/kg | Predicted human CL ([7]; Consensus prediction (excludes simple allometry)): 6.5 mL/min/kg | Predicted human CL ([7]; MLR rat-dog): 11 mL/min/kg and 10.7 mL/min/kg | Predicted human VDss ([7]; Oie-Tozer equation, rat and dog data): 0.97 L/kg | Predicted human CL ([7]; Simple allometry): 13.3 mL/min/kg | Predicted human VDss ([7]; Simple allometry): 2.71 L/kg | allometric exponent for CL ([7]; Simple allometry): 0.76 | Predicted human VDss ([7]; Simple allometry - unbound): 1.16 L/kg | Predicted human VDss ([7]; Wajima equation, rat and dog data): 6.2 L/kg | human CL estimates ([7]; across multiple, diverse scaling approaches): 6 to 8 mL/min/kg | Predicted human VDss ([7]; simple allometry (total and unbound) and Oie-Tozer equation): 1 to 3 L/kg | Predicted human VDss ([7]; simple allometry using total and unbound terms): 1.2 to 2.7 L/kg | Abundance based on UV spectra [8]: 59.4% | turnover (glucuronidation) [9]: no turnover was observed
